For series [1] the following is noted: buffer, pH 7.4.
Description: Solubility (phosphate buffer, pH 7.4)
In series [2] the test system is Canis familiaris. Kind of series: Change in mean blood pressure (MBP) in dog 1 after oral administration after a period of 120 min. In kind it is functional, Canis lupus familiaris.
Series [3] has as its system Canis familiaris. Kind of series: Change in mean blood pressure (MBP) in dog 3 after oral administration after a period of 300 min. The class given is functional, Canis lupus familiaris.
Series [4] relates to Canis familiaris. As to the kind of experiment: Change in mean blood pressure (MBP) in dog 1 after oral administration after a period of 90 min. In kind it is functional, Canis lupus familiaris.
Series [5] concerns Canis familiaris. Kind of series: Change in mean blood pressure (MBP) in dog 2 after oral administration after a period of 15 min. The class given is functional, Canis lupus familiaris.
The subject of series [6] is Canis familiaris. As to the kind of experiment: Change in mean blood pressure (MBP) in dog 2 after oral administration after a period of 60 min. The class given is functional, Canis lupus familiaris.
The subject of series [7] is Canis familiaris. Kind of series: Change in mean blood pressure (MBP) in dog 2 after oral administration after a period of 30 min. In kind it is functional, Canis lupus familiaris.
The test system of series [8] is Canis familiaris. Kind of series: Change in mean blood pressure (MBP) in dog 1 after oral administration after a period of 30 min. The class given is functional, Canis lupus familiaris.
For series [9], the system named is Canis familiaris. As to the kind of experiment: Change in mean blood pressure (MBP) in dog 3 after oral administration after a period of 60 min. The class given is functional, Canis lupus familiaris.
Series [10] relates to Canis familiaris. Kind of series: Change in mean blood pressure (MBP) in dog 3 after oral administration after a period of 120 min. In kind it is functional, Canis lupus familiaris.
Series [11] concerns Canis familiaris. As to the kind of experiment: Change in mean blood pressure (MBP) in dog 1 after oral administration after a period of 75 min. The class given is functional, Canis lupus familiaris.
For series [12], the system named is Canis familiaris. Kind of series: Change in mean blood pressure (MBP) in dog 3 after oral administration after a period of 15 min. In kind it is functional, Canis lupus familiaris.
Series [13] has as its system Canis familiaris. Kind of series: Change in mean blood pressure (MBP) in dog 2 after oral administration after a period of 180 min. The class given is functional, Canis lupus familiaris.
Series [14] relates to Canis familiaris. Kind of series: Change in mean blood pressure (MBP) in dog 1 after oral administration after a period of 10 min. The class given is functional, Canis lupus familiaris.
The subject of series [15] is Canis familiaris. As to the kind of experiment: Change in mean blood pressure (MBP) in dog 3 after oral administration after a period of 75 min. In kind it is functional, Canis lupus familiaris.
In series [16] the test system is Canis familiaris. As to the kind of experiment: Change in mean blood pressure (MBP) in dog 3 after oral administration after a period of 150 min. In kind it is functional, Canis lupus familiaris.
Series [17] has as its system Canis familiaris. As to the kind of experiment: Change in mean blood pressure (MBP) in dog 3 after oral administration after a period of 45 min. In kind it is functional, Canis lupus familiaris.
In series [18] the test system is Canis familiaris. As to the kind of experiment: Change in mean blood pressure (MBP) in dog 1 after oral administration after a period of 180 min. In kind it is functional, Canis lupus familiaris.
Series [19] has as its system Canis familiaris. Kind of series: Change in mean blood pressure (MBP) in dog 3 after oral administration after a period of 30 min. In kind it is functional, Canis lupus familiaris.
For series [20], the system named is Canis familiaris. Kind of series: Change in mean blood pressure (MBP) in dog 2 after oral administration after a period of 240 min. In kind it is functional, Canis lupus familiaris.
Series [21] concerns Canis familiaris. As to the kind of experiment: Change in mean blood pressure (MBP) in dog 3 after oral administration after a period of 90 min. In kind it is functional, Canis lupus familiaris.
Series [22] has as its system Canis familiaris. Kind of series: Change in mean blood pressure (MBP) in dog 3 after oral administration after a period of 240 min. In kind it is functional, Canis lupus familiaris.
In series [23] the test system is Canis familiaris. Kind of series: Change in mean blood pressure (MBP) in dog 2 after oral administration after a period of 90 min. In kind it is functional, Canis lupus familiaris.
For series [24], the system named is Canis familiaris. As to the kind of experiment: Change in mean blood pressure (MBP) in dog 2 after oral administration after a period of 300 min. The class given is functional, Canis lupus familiaris.
Series [25] deals with Canis familiaris. Kind of series: Change in mean blood pressure (MBP) in dog 1 after oral administration after a period of 240 min. The class given is functional, Canis lupus familiaris.
Series [26] deals with Canis familiaris. Kind of series: Change in mean blood pressure (MBP) in dog 1 after oral administration after a period of 15 min. The class given is functional, Canis lupus familiaris.
In series [27] the test system is Canis familiaris. Kind of series: Change in mean blood pressure (MBP) in dog 1 after oral administration after a period of 60 min. The class given is functional, Canis lupus familiaris.
Series [28] relates to Canis familiaris. Kind of series: Change in mean blood pressure (MBP) in dog 3 after oral administration after a period of 180 min. In kind it is functional, Canis lupus familiaris.
Series [29] has as its system Canis familiaris. Kind of series: Change in mean blood pressure (MBP) in dog 1 after oral administration after a period of 150 min. The class given is functional, Canis lupus familiaris.
In series [30] the test system is Canis familiaris. Kind of series: Change in mean blood pressure (MBP) in dog 2 after oral administration after a period of 75 min. In kind it is functional, Canis lupus familiaris.
Series [31] has as its system Canis familiaris. As to the kind of experiment: Change in mean blood pressure (MBP) in dog 2 after oral administration after a period of 120 min. In kind it is functional, Canis lupus familiaris.
Series [32] relates to Canis familiaris. Kind of series: Change in mean blood pressure (MBP) in dog 1 after oral administration after a period of 45 min. In kind it is functional, Canis lupus familiaris.
The subject of series [33] is Canis familiaris. Kind of series: Change in mean blood pressure (MBP) in dog 2 after oral administration after a period of 150 min. The class given is functional, Canis lupus familiaris.
Series [34] has as its system Canis familiaris. As to the kind of experiment: Change in mean blood pressure (MBP) in dog 2 after oral administration after a period of 45 min. The class given is functional, Canis lupus familiaris.
For series [35], the system named is Canis familiaris. Kind of series: Change in mean blood pressure (MBP) in dog 1 after oral administration after a period of 300 min. The class given is functional, Canis lupus familiaris.
Series [36] can be described thus: physchem. The note with it: S.
A short description of series [37]: physchem. Conditions: phosphate buffer, pH 7.4, S.
Description: Solubility (phosphate buffer, pH 7.4)
For a further series, the species on record is Sus scrofa. Kind of series: Concentration required for 50% inhibition of porcine kidney renin at 10e-7 nM concentration. In kind it is functional.
The nature of series [38]: Partition coefficient (logD) (octanol/citric acid-phosphate buffer).

What is called solubility is the concentration that dissolves in the medium under given conditions. A high value points to a readily soluble substance. A word on the Inhibition: it is how much of the control response was suppressed. A higher Inhibition goes with a response far below the control. The logD is the decadic logarithm of the distribution of all forms, ionised or not, between an organic phase and buffer at a given pH. A low value points to a more hydrophilic compound.

Where only a bound is given, the exact number is not on record here.

`CC(C)CC(NC(=O)[C@H](Cc1c[nH]cn1)NC(=O)[C@H](Cc1ccccc1)NC(=O)OC(C)(C)C)C(O)CC(=O)N[C@@H](CC(C)C)C(=O)NCCC(N)C(=O)O` (stereo in doubt; 16) returned an S of 2300 µM. Also, in series [1], the S came out at 6100 µM.
As to `CC(C)C[C@H](NC(=O)CC(O)C(CC1CCCCC1)NC(=O)[C@H](Cc1c[nH]cn1)NC(=O)[C@H](Cc1ccccc1)NC(=O)OC(C)(C)C)C(=O)NCc1cccc(CN)c1` (stereo not given in full), the MBP is reported as -2 mmHg with Canis familiaris [2]; -3 mmHg with Canis familiaris [3]; 1 mmHg in the series on Canis familiaris [4]; -6 mmHg in the series on Canis familiaris [5]; 0 mmHg in the series with Canis familiaris [6]; -3 mmHg in the series with Canis familiaris [7]. Further, the MBP in the series with Canis familiaris [8] is given as -2 mmHg; in the series with Canis familiaris [9], -5 mmHg; in the series with Canis familiaris [10], 1 mmHg; in the series on Canis familiaris [11] it was -7 mmHg; with Canis familiaris [12] it was 1 mmHg; with Canis familiaris [13], -2 mmHg. The MBP in the series on Canis familiaris [14] is listed as -12 mmHg; in the series with Canis familiaris [15], -9 mmHg; in the series on Canis familiaris [16], -2 mmHg; in the series on Canis familiaris [17], -7 mmHg; in the series on Canis familiaris [18] it was -13 mmHg; in the series on Canis familiaris [19] it was -6 mmHg. For the same molecule, the MBP is -1 mmHg in the series on Canis familiaris [20]; -2 mmHg in the series with Canis familiaris [21]; -3 mmHg in the series on Canis familiaris [22]; -5 mmHg with Canis familiaris [23]; -1 mmHg with Canis familiaris [24]; 1 mmHg in the series on Canis familiaris [25]. Further, the MBP with Canis familiaris [26] is -18 mmHg; in the series with Canis familiaris [27], -4 mmHg; in the series with Canis familiaris [28] it was -5 mmHg; with Canis familiaris [29], -1 mmHg; with Canis familiaris [30] it was 1 mmHg; in the series with Canis familiaris [31], -4 mmHg. The MBP is listed as -6 mmHg with Canis familiaris [32], -3 mmHg with Canis familiaris [33], -4 mmHg in the series on Canis familiaris [34] and -10 mmHg in the series on Canis familiaris [35].
`CC(C)CC(NC(=O)[C@H](Cc1c[nH]cn1)NC(=O)[C@H](Cc1ccccc1)NC(=O)OC(C)(C)C)C(O)CC(=O)N[C@@H](CC(C)C)C(=O)NCCS(=O)(=O)O` (stereo not given in full): the solubility in the series “physchem [36]” and in the series “physchem [37]” was greater than 11 mM throughout. Moreover, in the series listed under Sus scrofa, the Inhibition was determined as 0%. This molecule showed a logD in [38] of 0.633.

The record behind these values is ChEMBL document CHEMBL1123973, “Renin inhibitors containing hydrophilic groups. Tetrapeptides with enhanced aqueous solubility and nanomolar potency” (J Med Chem, 1988).
